{"source": "patent US12156876B2", "about": "“Formulations of influenza therapeutics” (priority 2018, dated 2024)", "key": {"influenza": {"system": "influenza", "test": "anti-influenza potency", "assay_type": "cell-based"}, "[1]": {"conditions": "BALB/C, mouse, in vivo"}}}
{"smiles": "O=C(O)C1C2CCC(CC2)C1n1cc(F)c2cnc(-c3c[nH]c4ncc(Cl)cc34)nc21", "note": "(centres unmarked) [Compound 1, 3-(2-(5-chloro-1H-pyrrolo[2,3-b]pyridin-3-yl)-5-fluoro-7H-pyrrolo[2,3-d]pyrimidin-7-yl)bicyclo[2.2.2]octane-2-carboxylic acid]", "values": [{"measurement": "EC50", "setting": "influenza", "value": "0.1 to 3", "unit": "nM"}, {"measurement": "drug level excess of the therapeutic dose (anti-influenza potency EC50)", "setting": "[1]", "value": "at least 100 fold"}]}
